# Measured values taken from patent US20190381014A1, “ISOQUINOLINONE COMPOUNDS AND USE THEREOF IN PREPARATION OF ANTIVIRAL DRUGS” (Ginkgo Pharma Co., Ltd., priority 2016, published 2019).
# System: HBsAg
# Assay: HBsAg inhibition in HepG2.2.15 culture supernatant (ELISA)
# Format: cell-based, HBV
# Conditions: HepG2.2.15 cells, supernatant on day 8, ELISA; read-out: Activity in HBsAg inhibition, EC50
# Description: Test method: HepG2.2.15 cell line was seeded into 96-well plates at 1.5×10^4 cells/well. On the following day, the cells were treated with a three-fold serial dilution series of the compounds at eight concentration points, and 2 duplicate wells were determined in parallel. The final DMSO concentration in the culture solution was 0.5%. On the fifth day, the culture solution was replaced with fresh solution containing the compounds. On the eighth day, the culture supernatant was collected and the HBsAg in the culture supernatant was detected by ELISA. The percent inhibition was calculated with respect to the blank control.
row,SMILES,EC50
1,"COc1cc2c(cc1OC1CCOCC1)CC(C(C)C)n1cc(C(=O)O)c(=O)cc1-2 (racemic) [Compound I-3-rac, 6-isopropyl-10-methoxy-2-oxo-9-((tetrahydro-2H-pyran-4-yl)oxy)-6,7-dihydro-2H-pyrido[2,1-α]isoquinoline-3-carboxylic acid]",7.04 nM

# Same assay, conditions: Hepatitis B virus, HepG2.2.15, 192 h, read-out: Activity in HBsAg inhibition, EC50
row,SMILES,EC50
1,"COCCCOc1cc2c(cc1OC)-c1cc(=O)c(C(=O)O)cn1C(C(C)C)C2 (racemic) [A-rac, reference compound]",8.21 nM
2,"COc1cc2c(cc1O[C@H]1CCOC1)CC(C(C)C)n1cc(C(=O)O)c(=O)cc1-2 (mixture of isomers) [Compound I-1-rac, 6-isopropyl-10-methoxy-2-oxo-9-(((S)-tetrahydrofuran-3-yl)oxy)-6,7-dihydro-2H-pyrido[2,1-α]isoquinoline-3-carboxylic acid]",5.74 nM
3,"COc1cc2c(cc1O[C@@H]1CCOC1)CC(C(C)C)n1cc(C(=O)O)c(=O)cc1-2 (mixture of isomers) [Compound I-2-rac, 6-isopropyl-10-methoxy-2-oxo-9-(((R)-tetrahydrofuran-3-yl)oxy)-6,7-dihydro-2H-pyrido[2,1-α]isoquinoline-3-carboxylic acid]",3.26 nM
4,"COc1cc2c(cc1OC1COC1)CC(C(C)C)n1cc(C(=O)O)c(=O)cc1-2 (racemic) [Compound I-4-rac, 6-isopropyl-10-methoxy-9-(oxetan-3-yloxy)-2-oxo-6,7-dihydro-2H-pyrido[2,1-α]isoquinoline-3-carboxylic acid]",3.62 nM
5,"COc1cc2c(cc1O[C@H]1C[C@H](OC)C1)CC(C(C)C)n1cc(C(=O)O)c(=O)cc1-2 (mixture of isomers) [Compound I-5-rac, 6-isopropyl-10-methoxy-9-((1R,3S)-3-methoxycyclobutoxy)-2-oxo-6,7-dihydro-2H-pyrido[2,1-α]isoquinoline-3-carboxylic acid]",3.56 nM
6,"COCC1(COc2cc3c(cc2OC)-c2cc(=O)c(C(=O)O)cn2C(C(C)C)C3)CC1 (racemic) [Compound I-6-rac, 6-isopropyl-10-methoxy-9-((1-(methoxymethyl)cyclopropyl)methoxy)-2-oxo-6,7-dihydro-2H-pyrido[2,1-α]isoquinoline-3-carboxylic acid]",4.12 nM
7,"COCC1(COc2cc3c(cc2OC)-c2cc(=O)c(C(=O)O)cn2C(C(C)C)C3)COC1 (racemic) [Compound I-7-rac, 6-isopropyl-10-methoxy-9-((3-(methoxymethyl)oxetan-3-yl)methoxy)-2-oxo-6,7-dihydro-2H-pyrido[2,1-α]isoquinoline-3-carboxylic acid]",4.68 nM
8,"COc1cc2c(cc1OCC1CC(OC)C1)CC(C(C)C)n1cc(C(=O)O)c(=O)cc1-2 (racemic) [Compound I-8-rac, 6-isopropyl-10-methoxy-9-((3-methoxycyclobutyl)methoxy)-2-oxo-6,7-dihydro-2H-pyrido[2,1-α]isoquinoline-3-carboxylic acid]",5.59 nM
9,"COc1cc2c(cc1OCCCC(C)=O)CC(C(C)C)n1cc(C(=O)O)c(=O)cc1-2 (racemic) [Compound I-9-rac, 6-isopropyl-10-methoxy-2-oxo-9-((4-oxopentyl)oxy)-6,7-dihydro-2H-pyrido[2,1-α]isoquinoline-3-carboxylic acid]",3.71 nM
10,"COc1cc2c(cc1OC1CCCC1)CC(C(C)C)n1cc(C(=O)O)c(=O)cc1-2 (racemic) [Compound I-10-rac, 9-(cyclopentyloxy)-6-isopropyl-10-methoxy-2-oxo-6,7-dihydro-2H-pyrido[2,1-α]isoquinoline-3-carboxylic acid]",3.78 nM
11,"COc1cc2c(cc1C#CC1CC1)CC(C(C)C)n1cc(C(=O)O)c(=O)cc1-2 (racemic) [Compound I-11-rac, 9-(cyclopropylethynyl)-6-isopropyl-10-methoxy-2-oxo-6,7-dihydro-2H-pyrido[2,1-α]isoquinoline-3-carboxylic acid]",2.61 nM
